Measured values as given in PubChem BioAssay (NCI).
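At the GI50, growth is halved. TGI: total growth inhibition.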

Experiments:
Assay in all cases: growth of human tumour cells (NCI), 384-well format
MDA-MB-435 melanoma = tested on: MDA-MB-435 melanoma
CAKI-1 renal = tested on: CAKI-1 renal
HOP-62 NSCLC = tested on: HOP-62 NSCLC
MDA-MB-231 breast = tested on: MDA-MB-231 breast
DU-145 prostate = tested on: DU-145 prostate
SNB-19 CNS = tested on: SNB-19 CNS
T-47D breast = tested on: T-47D breast
OVCAR-3 ovarian = tested on: OVCAR-3 ovarian
BT-549 breast = tested on: BT-549 breast
NCI-H23 lung = tested on: NCI-H23 lung
HCC-2998 colon = tested on: HCC-2998 colon
A498 renal = tested on: A498 renal
RPMI-8226 leukemia = tested on: RPMI-8226 leukemia
M14 melanoma = tested on: M14 melanoma
NCI-H522 lung = tested on: NCI-H522 lung
U251 glioblastoma = tested on: U251 glioblastoma
TK-10 renal = tested on: TK-10 renal
PC-3 prostate = tested on: PC-3 prostate
HCT-116 colon = tested on: HCT-116 colon
HL-60(TB) leukemia = tested on: HL-60(TB) leukemia
MCF7 breast = tested on: MCF7 breast
NCI-H226 lung = tested on: NCI-H226 lung
ACHN renal = tested on: ACHN renal
EKVX NSCLC = tested on: EKVX NSCLC
UACC-62 melanoma = tested on: UACC-62 melanoma
NCI-H460 NSCLC = tested on: NCI-H460 NSCLC
KM12 colon = tested on: KM12 colon
RXF 393 renal = tested on: RXF 393 renal
OVCAR-5 ovarian = tested on: OVCAR-5 ovarian
SK-OV-3 ovarian = tested on: SK-OV-3 ovarian
SF-539 CNS = tested on: SF-539 CNS
OVCAR-8 ovarian = tested on: OVCAR-8 ovarian
SR leukemia = tested on: SR leukemia
MALME-3M melanoma = tested on: MALME-3M melanoma
HCT-15 colon = tested on: HCT-15 colon
HS 578T breast = tested on: HS 578T breast
A549 NSCLC = tested on: A549 NSCLC
MDA-MB-468 breast = tested on: MDA-MB-468 breast
SF-295 CNS = tested on: SF-295 CNS
NCI-H322M lung = tested on: NCI-H322M lung
HT29 colon = tested on: HT29 colon
NCI/ADR-RES ovarian = tested on: NCI/ADR-RES ovarian
COLO 205 colon = tested on: COLO 205 colon
IGROV1 ovarian = tested on: IGROV1 ovarian
SF-268 CNS = tested on: SF-268 CNS
SK-MEL-28 melanoma = tested on: SK-MEL-28 melanoma
SNB-75 CNS = tested on: SNB-75 CNS
UACC-257 melanoma = tested on: UACC-257 melanoma
MOLT-4 leukemia = tested on: MOLT-4 leukemia
OVCAR-4 ovarian = tested on: OVCAR-4 ovarian
SN12C renal = tested on: SN12C renal
SK-MEL-5 melanoma = tested on: SK-MEL-5 melanoma
LOX IMVI melanoma = tested on: LOX IMVI melanoma
HOP-92 NSCLC = tested on: HOP-92 NSCLC

## Cn1ncc(Cl)c1-c1cc(C(=O)N[C@H](CN)Cc2cccc(F)c2)sc1Cl
MDA-MB-435 melanoma
  GI50: 2.01 µM
  TGI: 5.43 µM
CAKI-1 renal
  GI50: 2.76 µM
  TGI: 14 µM
HOP-62 NSCLC
  GI50: 2.31 µM
  TGI: 6.22 µM
MDA-MB-231 breast
  GI50: 5.95 µM
  TGI: 18.8 µM
DU-145 prostate
  GI50: 3.38 µM
  TGI: 14.6 µM
SNB-19 CNS
  GI50: 1.74 µM
  TGI: 10.2 µM
T-47D breast
  GI50: 0.274 µM
  TGI: 2.05 µM
OVCAR-3 ovarian
  GI50: 2.02 µM
  TGI: 10.5 µM
BT-549 breast
  GI50: 0.819 µM
  TGI: 2.45 µM
NCI-H23 lung
  GI50: 3.2 µM
  TGI: 11.7 µM
HCC-2998 colon
  GI50: 0.558 µM
  TGI: 2.01 µM
A498 renal
  GI50: 0.126 µM
  TGI: 1.24 µM
RPMI-8226 leukemia
  GI50: 1.76 µM
  TGI: 3.18 µM
M14 melanoma
  GI50: 1.71 µM
  TGI: 3.15 µM
NCI-H522 lung
  GI50: 1.9 µM
  TGI: 5.36 µM
U251 glioblastoma
  GI50: 1.11 µM
  TGI: 2.43 µM
TK-10 renal
  GI50: 1.18 µM
  TGI: 5.47 µM
PC-3 prostate
  GI50: 0.3 µM
  TGI: 2.69 µM
HCT-116 colon
  GI50: 2.28 µM
  TGI: 7.53 µM
HL-60(TB) leukemia
  GI50: 1.32 µM
  TGI: 2.7 µM
MCF7 breast
  GI50: 0.46 µM
  TGI: 2 µM
NCI-H226 lung
  GI50: 2.93 µM
  TGI: 9.22 µM
ACHN renal
  GI50: 3.46 µM
  TGI: 15.5 µM
EKVX NSCLC
  GI50: 2.94 µM
  TGI: 12.5 µM
UACC-62 melanoma
  GI50: 1.29 µM
  TGI: 2.97 µM
NCI-H460 NSCLC
  GI50: 0.427 µM
  TGI: 2.67 µM
KM12 colon
  GI50: 0.532 µM
  TGI: 2.21 µM
RXF 393 renal
  GI50: 0.68 µM
  TGI: 2.56 µM
OVCAR-5 ovarian
  GI50: 1.62 µM
  TGI: 4.29 µM
SK-OV-3 ovarian
  GI50: 0.737 µM
  TGI: 8.04 µM
SF-539 CNS
  GI50: 0.337 µM
  TGI: 2.14 µM
OVCAR-8 ovarian
  GI50: 2.11 µM
  TGI: 5.32 µM
SR leukemia
  GI50: 1.35 µM
  TGI: 2.64 µM
MALME-3M melanoma
  GI50: 1.3 µM
  TGI: 2.59 µM
HCT-15 colon
  GI50: 1.76 µM
  TGI: 13.1 µM
HS 578T breast
  GI50: 1.01 µM
  TGI: 2.56 µM
A549 NSCLC
  GI50: 4.01 µM
  TGI: 16.4 µM
MDA-MB-468 breast
  GI50: 0.187 µM
  TGI: 1.95 µM
SF-295 CNS
  GI50: 1.07 µM
  TGI: 2.33 µM
NCI-H322M lung
  GI50: 2.15 µM
  TGI: 10.9 µM
HT29 colon
  GI50: 1.15 µM
  TGI: 2.89 µM
NCI/ADR-RES ovarian
  GI50: 7.07 µM
  TGI: 19.9 µM
COLO 205 colon
  GI50: 1.12 µM
  TGI: 2.36 µM
IGROV1 ovarian
  GI50: 0.0436 µM
  TGI: 0.534 µM
SF-268 CNS
  GI50: 4.5 µM
  TGI: 15.3 µM
SK-MEL-28 melanoma
  GI50: 1.33 µM
  TGI: 2.67 µM
SNB-75 CNS
  GI50: 0.449 µM
  TGI: 3.66 µM
UACC-257 melanoma
  GI50: 1.46 µM
  TGI: 2.79 µM
MOLT-4 leukemia
  GI50: 0.15 µM
  TGI: 1.12 µM
OVCAR-4 ovarian
  GI50: 6 µM
  TGI: 18.9 µM
SN12C renal
  GI50: 2.67 µM
  TGI: 14.4 µM
SK-MEL-5 melanoma
  GI50: 1.39 µM
  TGI: 2.7 µM
LOX IMVI melanoma
  GI50: 1.75 µM
  TGI: 3.23 µM
HOP-92 NSCLC
  GI50: 2.09 µM
  TGI: 8.6 µM

## Cc1c(Cn2c(C)nc3c(C(=O)O)cc(N4CCOCC4)cc32)cccc1C(F)(F)F
MDA-MB-435 melanoma
  GI50: 75 µM
  TGI: > 100 µM
CAKI-1 renal
  GI50: 57.7 µM
  TGI: > 100 µM
HOP-62 NSCLC
  GI50: 24.5 µM
  TGI: > 100 µM
MDA-MB-231 breast
  GI50: 97.2 µM
  TGI: > 100 µM
DU-145 prostate
  GI50: 52.1 µM
  TGI: > 100 µM
SNB-19 CNS
  GI50: 89.1 µM
  TGI: > 100 µM
T-47D breast
  GI50: > 100 µM
  TGI: > 100 µM
OVCAR-3 ovarian
  GI50: 39.3 µM
  TGI: > 100 µM
BT-549 breast
  GI50: 67.4 µM
  TGI: > 100 µM
NCI-H23 lung
  GI50: 85.8 µM
  TGI: > 100 µM
HCC-2998 colon
  GI50: 45.2 µM
  TGI: > 100 µM
A498 renal
  GI50: 0.462 µM
  TGI: 8.29 µM
RPMI-8226 leukemia
  GI50: 46.7 µM
  TGI: > 100 µM
M14 melanoma
  GI50: 30.1 µM
  TGI: > 100 µM
NCI-H522 lung
  GI50: 75.6 µM
  TGI: > 100 µM
U251 glioblastoma
  GI50: 48.8 µM
  TGI: > 100 µM
TK-10 renal
  GI50: 35.2 µM
  TGI: > 100 µM
PC-3 prostate
  GI50: 26.9 µM
  TGI: > 100 µM
HCT-116 colon
  GI50: 38.2 µM
  TGI: > 100 µM
HL-60(TB) leukemia
  GI50: 18.3 µM
  TGI: > 100 µM
MCF7 breast
  GI50: 59.9 µM
  TGI: > 100 µM
NCI-H226 lung
  GI50: 64.9 µM
  TGI: > 100 µM
ACHN renal
  GI50: 20.8 µM
  TGI: > 100 µM
EKVX NSCLC
  GI50: 58.1 µM
  TGI: > 100 µM
UACC-62 melanoma
  GI50: 75.8 µM
  TGI: > 100 µM
NCI-H460 NSCLC
  GI50: 33.9 µM
  TGI: > 100 µM
KM12 colon
  GI50: 73 µM
  TGI: > 100 µM
RXF 393 renal
  GI50: 14.6 µM
  TGI: > 100 µM
OVCAR-5 ovarian
  GI50: 52.4 µM
  TGI: > 100 µM
SK-OV-3 ovarian
  GI50: 61.8 µM
  TGI: > 100 µM
SF-539 CNS
  GI50: 54 µM
  TGI: > 100 µM
OVCAR-8 ovarian
  GI50: 44.1 µM
  TGI: > 100 µM
SR leukemia
  GI50: 18.5 µM
  TGI: 40.8 µM
MALME-3M melanoma
  GI50: > 100 µM
  TGI: > 100 µM
HCT-15 colon
  GI50: 3.97 µM
  TGI: > 100 µM
HS 578T breast
  GI50: 82.8 µM
  TGI: > 100 µM
A549 NSCLC
  GI50: 62.1 µM
  TGI: > 100 µM
MDA-MB-468 breast
  GI50: 49.2 µM
  TGI: > 100 µM
SF-295 CNS
  GI50: 22.2 µM
  TGI: > 100 µM
NCI-H322M lung
  GI50: 60.9 µM
  TGI: > 100 µM
HT29 colon
  GI50: 54.7 µM
  TGI: > 100 µM
NCI/ADR-RES ovarian
  GI50: 3.1 µM
  TGI: 11.1 µM
COLO 205 colon
  GI50: 99.8 µM
  TGI: > 100 µM
IGROV1 ovarian
  GI50: 64.4 µM
  TGI: > 100 µM
SF-268 CNS
  GI50: 70.6 µM
  TGI: > 100 µM
SK-MEL-28 melanoma
  GI50: > 100 µM
  TGI: > 100 µM
SNB-75 CNS
  GI50: 63.4 µM
  TGI: > 100 µM
UACC-257 melanoma
  GI50: 56.3 µM
  TGI: > 100 µM
MOLT-4 leukemia
  GI50: 19.6 µM
  TGI: 41.4 µM
OVCAR-4 ovarian
  GI50: 31.8 µM
  TGI: > 100 µM
SN12C renal
  GI50: 30.6 µM
  TGI: > 100 µM
SK-MEL-5 melanoma
  GI50: 18 µM
  TGI: 57.8 µM
LOX IMVI melanoma
  GI50: 33.1 µM
  TGI: > 100 µM
HOP-92 NSCLC
  GI50: 72.7 µM
  TGI: > 100 µM
